Assays:
Assay in all cases: In vitro antibacterial activity (MIC), agar dilution
[1] = test system: STAPHYLOCOCCUS AUREUS A5177; type: cell-based; conditions: S. aureus A5177; BHI agar, 35-37 °C, 20-24 h
[2] = test system: STAPHYLOCOCCUS AUREUS CMX 642A; type: cell-based; conditions: S. aureus CMX 642A; BHI agar, 35-37 °C, 20-24 h
[3] = test system: STREPTOCOCCUS PYOGENES EES61; type: cell-based; conditions: S. pyogenes EES61; BHI agar, 35-37 °C, 20-24 h
[4] = test system: ENTEROBACTER AEROGENES ATCC 13048; type: cell-based; conditions: E. aerogenes ATCC 13048; BHI agar, 35-37 °C, 20-24 h
ESCHERICHIA COLI H560 = type: cell-based; conditions: E. coli H560; BHI agar, 35-37 °C, 20-24 h
[5] = test system: PSEUDOMONAS AERUGINOSA K799/WT; type: cell-based; conditions: P. aeruginosa K799/WT; BHI agar, 35-37 °C, 20-24 h
[6] = test system: PSEUDOMONAS AERUGINOSA DPHD-2862; type: cell-based; conditions: P. aeruginosa DPHD-2862; BHI agar, 35-37 °C, 20-24 h
[7] = test system: STAPHYLOCOCCUS AUREUS 1775; type: cell-based; conditions: S. aureus 1775; BHI agar, 35-37 °C, 20-24 h
[8] = test system: PSEUDOMONAS AERUGINOSA 5007; type: cell-based; conditions: P. aeruginosa 5007; BHI agar, 35-37 °C, 20-24 h
STR[…] 508 = type: cell-based, Streptococcus agalactiae; conditions: S. agalactiae CMX 508; BHI agar, 35-37 °C, 20-24 h
Experimental: (§1) Representative compounds of the present invention were assayed in vitro for antibacterial activity as follows: Twelve petri dishes containing successive aqueous dilutions of the test compound mixed with 10 mL of sterilized Brain Heart Infusion (BHI) agar (Difco 0418-01-5) were prepared. Each plate was inoculated with 1:100 (or 1:10 for slow-growing strains, such as Micrococcus and Streptococcus) dilutions of up to 32 different microorganisms, using a Steers replicator block. The inoculated plates were incubated at 35°-37° C. for 20 to 24 hours. In addition, a control plate, using BHI agar containing no test compound, was prepared and incubated at the beginning and end of each test.
(§2) An additional plate containing a compound having known susceptibility patterns for the organisms being tested and belonging to the same antibiotic class as the test compound was also prepared and incubated as a further control, as well as to provide test-to-test comparability. Erythromycin A was used for this purpose.
(§3) After incubation, each plate was examined. The minimum inhibitory concentration (MIC) was defined as the lowest concentration of drug yielding no growth, a slight haze, or sparsely isolated colonies on the inoculum spot as compared to the growth control.

EN[…] ATCC 8043 = type: cell-based, Enterococcus faecium; conditions: E. faecium ATCC 8043; BHI agar, 35-37 °C, 20-24 h
Experimental: as §1, §2, §3

[9] = test system: STREPTOCOCCUS PYOGENES PIU 2548; type: cell-based; conditions: S. pyogenes PIU 2548; BHI agar, 35-37 °C, 20-24 h
[10] = test system: STREPTOCOCCUS BOVIS A-5169; type: cell-based; conditions: S. bovis A-5169; BHI agar, 35-37 °C, 20-24 h
ESCHERICHIA COLI DC-2 = type: cell-based; conditions: E. coli DC-2; BHI agar, 35-37 °C, 20-24 h
[11] = test system: STAPHYLOCOCCUS AUREUS A-5278; type: cell-based; conditions: S. aureus A-5278; BHI agar, 35-37 °C, 20-24 h
[12] = test system: PSEUDOMONAS AERUGINOSA DPHD-5263; type: cell-based; conditions: P. aeruginosa DPHD-5263; BHI agar, 35-37 °C, 20-24 h
M[…] ATCC 4698 = type: cell-based, Micrococcus luteus; conditions: M. luteus ATCC 4698; BHI agar, 35-37 °C, 20-24 h
Experimental: as §1, §2, §3

M[…] ATCC 9341 = type: cell-based, Micrococcus luteus; conditions: M. luteus ATCC 9341; BHI agar, 35-37 °C, 20-24 h
Experimental: as §1, §2, §3

[13] = test system: STREPTOCOCCUS PYOGENES 930; type: cell-based; conditions: S. pyogenes 930; BHI agar, 35-37 °C, 20-24 h
[14] = test system: NOCARDIA ARSTEROIDES ATCC 9970; type: cell-based; conditions: Nocardia ATCC 9970; BHI agar, 35-37 °C, 20-24 h
[15] = test system: STAPHYLOCOCCUS AUREUS CMX 553; type: cell-based; conditions: S. aureus CMX 553; BHI agar, 35-37 °C, 20-24 h
CANDIDA ALBICANS CCH 442 = type: cell-based; conditions: C. albicans CCH 442; BHI agar, 35-37 °C, 20-24 h
ESCHERICHIA COLI KNK 437 = type: cell-based; conditions: E. coli KNK 437; BHI agar, 35-37 °C, 20-24 h
[16] = test system: STAPHYLOCOCCUS AUREUS ATCC 6538P; type: cell-based; conditions: S. aureus ATCC 6538P; BHI agar, 35-37 °C, 20-24 h
[17] = test system: PSEUDOMONAS AERUGINOSA K799/61; type: cell-based; conditions: P. aeruginosa K799/61; BHI agar, 35-37 °C, 20-24 h

Q: Which results are given for `CC[C@H]1OC(=O)[C@H](C)C[C@H](C)[C@@H](O[C@@H]2O[C@H](C)C[C@H](N(C)C)[C@H]2O)[C@](C)(OC)C[C@@H](C)C(=NOC)[C@H](C)[C@@H](O)[C@]1(C)O` [Ex. 6]?
A: minimum inhibitory concentration (MIC) [1]: 6.2; minimum inhibitory concentration (MIC) [2]: 6.2; minimum inhibitory concentration (MIC) [3]: 0.39; minimum inhibitory concentration (MIC) [4]: > 100; minimum inhibitory concentration (MIC) (ESCHERICHIA COLI H560): 50; minimum inhibitory concentration (MIC) [5]: > 100; minimum inhibitory concentration (MIC) [6]: > 100; minimum inhibitory concentration (MIC) [7]: > 100; minimum inhibitory concentration (MIC) [8]: > 100; minimum inhibitory concentration (MIC) (STR[…] 508): 0.39; minimum inhibitory concentration (MIC) (EN[…] ATCC 8043): 0.78; minimum inhibitory concentration (MIC) [9]: 0.78; minimum inhibitory concentration (MIC) [10]: 0.39; minimum inhibitory concentration (MIC) (ESCHERICHIA COLI DC-2): 0.78; minimum inhibitory concentration (MIC) [11]: > 100; minimum inhibitory concentration (MIC) [12]: 50; minimum inhibitory concentration (MIC) (M[…] ATCC 4698): 0.39; minimum inhibitory concentration (MIC) (M[…] ATCC 9341): 0.39; minimum inhibitory concentration (MIC) [13]: > 100; minimum inhibitory concentration (MIC) [14]: 0.78; minimum inhibitory concentration (MIC) [15]: 6.2; minimum inhibitory concentration (MIC) (CANDIDA ALBICANS CCH 442): > 100; minimum inhibitory concentration (MIC) (ESCHERICHIA COLI KNK 437): 25; minimum inhibitory concentration (MIC) [16]: 6.2; minimum inhibitory concentration (MIC) [17]: > 100

Q: How did the “minimum inhibitory concentration (MIC)” value [1] turn out when `CC[C@H]1OC(=O)[C@H](C)C[C@H](C)[C@@H](O[C@@H]2O[C@H](C)C[C@H](N(C)C)[C@H]2O)[C@](C)(OC)C[C@@H](C)C(=O)[C@H](C)[C@@H](O)[C@]1(C)O` [Ex. 1] was run?
A: 25

Q: And the “minimum inhibitory concentration (MIC)” value [2]?
A: 25

Q: And the “minimum inhibitory concentration (MIC)” value [3]?
A: 1.56

Q: And the “minimum inhibitory concentration (MIC)” value [4]?
A: > 100

Q: What about the “minimum inhibitory concentration (MIC)” value (ESCHERICHIA COLI H560) of the same compound?
A: > 100

Q: What about the “minimum inhibitory concentration (MIC)” value [5] of the same compound?
A: > 100

Q: What about the “minimum inhibitory concentration (MIC)” value [6] of the same compound?
A: > 100

Q: What about the “minimum inhibitory concentration (MIC)” value [7] of the same compound?
A: > 100

Q: And the “minimum inhibitory concentration (MIC)” value [8]?
A: > 100

Q: What about the “minimum inhibitory concentration (MIC)” value (STR[…] 508) of the same compound?
A: 3.1

Q: And the “minimum inhibitory concentration (MIC)” value (EN[…] ATCC 8043)?
A: 25

Q: What about the “minimum inhibitory concentration (MIC)” value [9] of the same compound?
A: 3.1

Q: And the “minimum inhibitory concentration (MIC)” value [10]?
A: 0.78

Q: And the “minimum inhibitory concentration (MIC)” value (ESCHERICHIA COLI DC-2)?
A: > 100

Q: What about the “minimum inhibitory concentration (MIC)” value [11] of the same compound?
A: > 100

Q: What about the “minimum inhibitory concentration (MIC)” value [12] of the same compound?
A: > 100

Q: What about the “minimum inhibitory concentration (MIC)” value (M[…] ATCC 4698) of the same compound?
A: 6.2

Q: And the “minimum inhibitory concentration (MIC)” value (M[…] ATCC 9341)?
A: 3.1

Q: And the “minimum inhibitory concentration (MIC)” value [13]?
A: > 100

Q: What about the “minimum inhibitory concentration (MIC)” value [14] of the same compound?
A: 1.56

Q: What about the “minimum inhibitory concentration (MIC)” value [15] of the same compound?
A: 25

Q: What about the “minimum inhibitory concentration (MIC)” value (CANDIDA ALBICANS CCH 442) of the same compound?
A: > 100

Q: And the “minimum inhibitory concentration (MIC)” value (ESCHERICHIA COLI KNK 437)?
A: > 100

Q: And the “minimum inhibitory concentration (MIC)” value [16]?
A: 25

Q: And the “minimum inhibitory concentration (MIC)” value [17]?
A: > 100

Q: Which “minimum inhibitory concentration (MIC)” value [1] does the source give for `CC[C@H]1OC(=O)[C@H](C)C[C@H](C)[C@@H](O[C@@H]2O[C@H](C)C[C@H](N(C)C)[C@H]2O)[C@](C)(OC)C[C@@H](C)C(=NO)[C@H](C)[C@@H](O)[C@]1(C)O` [Ex. 2] here?
A: 25

Q: What about the “minimum inhibitory concentration (MIC)” value [2] of the same compound?
A: 12.5

Q: And the “minimum inhibitory concentration (MIC)” value [3]?
A: 0.78

Q: What about the “minimum inhibitory concentration (MIC)” value [4] of the same compound?
A: > 100

Q: What about the “minimum inhibitory concentration (MIC)” value (ESCHERICHIA COLI H560) of the same compound?
A: > 100

Q: And the “minimum inhibitory concentration (MIC)” value [5]?
A: > 100

Q: And the “minimum inhibitory concentration (MIC)” value [6]?
A: > 100

Q: What about the “minimum inhibitory concentration (MIC)” value [7] of the same compound?
A: > 100

Q: What about the “minimum inhibitory concentration (MIC)” value [8] of the same compound?
A: > 100

Q: And the “minimum inhibitory concentration (MIC)” value (STR[…] 508)?
A: 0.78

Q: What about the “minimum inhibitory concentration (MIC)” value (EN[…] ATCC 8043) of the same compound?
A: 3.1

Q: What about the “minimum inhibitory concentration (MIC)” value [9] of the same compound?
A: 0.56

Q: And the “minimum inhibitory concentration (MIC)” value [10]?
A: 0.78

Q: And the “minimum inhibitory concentration (MIC)” value (ESCHERICHIA COLI DC-2)?
A: > 100

Q: And the “minimum inhibitory concentration (MIC)” value [11]?
A: > 100

Q: What about the “minimum inhibitory concentration (MIC)” value [12] of the same compound?
A: > 100

Q: And the “minimum inhibitory concentration (MIC)” value (M[…] ATCC 4698)?
A: 3.1

Q: What about the “minimum inhibitory concentration (MIC)” value (M[…] ATCC 9341) of the same compound?
A: 1.56

Q: What about the “minimum inhibitory concentration (MIC)” value [13] of the same compound?
A: > 100

Q: And the “minimum inhibitory concentration (MIC)” value [14]?
A: 0.02

Q: And the “minimum inhibitory concentration (MIC)” value [15]?
A: 12.5

Q: And the “minimum inhibitory concentration (MIC)” value (CANDIDA ALBICANS CCH 442)?
A: > 100

Q: What about the “minimum inhibitory concentration (MIC)” value (ESCHERICHIA COLI KNK 437) of the same compound?
A: > 100

Q: What about the “minimum inhibitory concentration (MIC)” value [17] of the same compound?
A: > 100
